Read-outs that look alike come from different tables or passages of the source.
Columns and labels:
[1] = cited from earlier work
KSHV latent antigens = experiment: Immunofluorescence assay of BC-3 cells for latent KSHV antigens; assay type: cell-based, Kaposi's sarcoma-associated herpesvirus (KSHV); conditions: 4 mM, stained with KS patient serum (panel C)
Method: Secondary antibody FITC-conjugated F(ab′)2 fragment of rabbit antihuman IgG (DAKO, Carpinteria, Calif.) diluted 1:40 in MB was applied. Cell nuclei were counterstained for 5 min, in PBS containing 17 μM Dapi (4′-6′-diamino-2′-phenyidole dihydrochloride [Boehringer Mannheim Corp., Indianapolis, Ind.]), rinsed in TBST, mounted with Vectashield (Vector Lab. Inc., Burlingame, Calif.) and examined in a fluorescence microscope Axioplan2 (Zeiss, Germany). BC-3 cells were run in parallel as controls.
In panel C the BC-3 cells have been treated with glycyrrhizic acid 4 mM and stained with KS patient serum. In panel D BC-3 cells have been treated with glycyrrhizic acid 4 mM and stained with Dapi to localize the nuclei. Kaposi's Sarcoma patient serum is used primary antibody to stain the KSHV latent antigens.

BC-1 cells = experiment: Effect on BC-1 cells growth curve (KSHV/EBV-infected); assay type: cell-based, human; conditions: 6 days
Method: (§1) The Glycyrrhizic acid (as ammonium salt supplied by Sigma) is dissolved in 25% of ethanol at 100 mM and adjusted to pH 6.8 with 1 N sodium hydroxide. The maximum inhibition activity with no effect on cell cycle is achieved with 4 mM, the dose-dependent range is within 2mM to 5mM.
(§2) BC-1 and BC-2 are cell lines established from two different HIV positive patients with non-Hodgkins lymphoma, specifically body cavity-based lymphomas. The cells are KSHV/EBV-infected and can be induced to enter lytic replication and viral production by treatment with TPA or with butyrate. These cells have an intact KSHV and EBV genomes and are ideal for KSHV and EBV isolation and study.(Cesarman, E. et al., Blood 1995 Oct.;86(7):2708-14.
(§3) The cells are treated for six days with alcohol 1%, glycyrrhizic acid 2 mM […], glycyrrhizic acid 3 mM and 4 mM in alcohol 0.5%, 0.75% and 1% respectively. After 6 days treatment cells growth decreased 50% using glycyrrhizic acid 2 mM and glycyrrhizic acid 3 mM. Cells growth decreased 80% using glycyrrhizic acid 4 mM.

BJAB cells = experiment: Effect on BJAB cells growth curve (KSHV negative control cells); assay type: cell-based, human; conditions: six days, 2 mM and 4 mM in alcohol 0.5% and 1%
Method: as §1
(§4) BJA-B is an Epstein-Barr virus (EBV)-negative lymphoblastoid cell line established from an African Burkift's lymphoma, KSHV negative cell line. See Menezes J, et al, Establishment and characterization of an Epstein-Barr virus (EBV)-negative lymphoblastoid B cell line (BJA-B) from an exceptional, EBV-genome-negative African Burkitt's lymphoma. Biomedicine 1975 Jul; 22 (4): 276-84. These cells are used as controls. Cells are cultured at concentration of 4×10^5/ml in RPMI with 20% of fetal calf serum in the presence or absence of different drug concentrations.
Cells are treated for six days with alcohol 0.5% and 1%, Glycyrrhizic acid 2 mM and 4 mM in alcohol 0.5% and 1% respectively. Glycyrrhizic acid has no effect on the cells proliferation.

BC-2 cells = experiment: Effect on BC-2 cells growth curve (KSHV/EBV-infected); assay type: cell-based, human; conditions: 6 days
Method: as §1, §2, §3

[2] = tested on: KSHV cyclin, v-FLIP and LANA (orf 73) genes; experiment: Northern blot of viral latent genes transcription in BC-3 cells; assay type: cell-based, Kaposi's sarcoma-associated herpesvirus (KSHV); conditions: for effect on the viral latent genes transcription: BC-3 cells, six days
Method: (§5) Total RNA was extracted using RNAzol B (Tel-Test Inc., Friendswood, Tex.) according to the manufacturer's instructions, and Poly A+RNA was selected with Poly A+ Tract kit (Promega, Madison, Wis.). To eliminate any contaminating DNA, the RNA samples were treated with 2 U RNAse free DNAse (Promega).
(§6) For Northern blot analysis, […] of each mRNA sample was electrophoresed in 1.5% formaldehyde agarose gel and then transferred to a Gene Screen nylon membrane (Du Pont, Boston, Mass.) overnight with 20×SSC. Filters were UV-cross-linked to fix the RNA and hybridized at 42° C. with probes obtained by PCR amplification of KSHV cyclin, v-FLIP and LANA (orf 73) genes (20) and labeled by ^32P random priming (Amersham Life Science, Buckinghamshire, England). Human β-actin probe was used as a quantitative control to measure the total mRNA. Membranes were washed twice at room temperature and twice at 65° C. then exposed.
(§7) On the left side are indicated the probes used. On the right side are indicated the size of the transcripts. All probes correspond to viral latent genes, except the human b actin which is used as a quantitative control to measure the transcription of total cellular mRNA.
(§8) Lane 6 is the positive control.

Human β-actin = experiment: Northern blot of β-actin as control for total cellular mRNA transcription; assay type: cell-based
Method: as §5, §6, §7, §8

BC-3 cells = experiment: Effect on BC-3 cells growth curve (latently KSHV-infected); assay type: cell-based, human
Method: as §1
BC-3 is a cell line established from a HIV negative patient with a primary effusion lymphoma. See Arvanitakis L, et al Establishment and characterization of a primary effusion (body cavity-based) lymphoma cell line (BC-3) harboring Kaposi's sarcoma-associated herpesvirus (KSHV/HHV-8) in the absence of Epstein-Barr virus. Blood 88:2648-2654, 1996. The cells are latently KSHV-infected, but lacks EBV, and can be induced to enter lytic replication and viral production by treatment with TPA or with butyrate. BC-3 has an intact KSHV genome and is suitable for the isolation and study of KSHV.
as §4
The cells are treated for six days with alcohol 0.5% and 1%, Glycyrrhizic acid 2 mM and 4 mM in alcohol 0.5% and 1% respectively. Cells growth is 50% inhibited by Glycyrrhizic acid 2 mM, while treatment with Glycyrrhizic acid 4 mM determines cell death.

Structure (SMILES) | solubility ([1]; ammonia water, ethanol, glacial acetic acid) | expression of latent viral antigens (KSHV latent antigens) | cells growth decreased (BC-1 cells; 2 mM) [%] | cells growth decreased (BC-1 cells; 3 mM) [%] | cells growth decreased (BC-1 cells; 4 mM) [%] | effect on the cells proliferation (BJAB cells) | cells growth decreased (BC-2 cells; 2 mM) [%] | cells growth decreased (BC-2 cells; 3 mM) [%] | cells growth decreased (BC-2 cells; 4 mM) [%] | solubility ([1]; hot water and alcohol) | concentration of maximum inhibition activity with no effect on cell cycle [2] [mM] | effect on the viral latent genes transcription ([2]; 2 mM (lane 7)) | effect on the viral latent genes transcription ([2]; 4 mM (lane 8)) | transcription of total cellular mRNA (b actin) (Human β-actin; BJA-B cells, six days, 2 mM and 4 mM (lanes 1-5)) | effect on cellular mRNA (β actin) (Human β-actin; all samples, BJA-B and BC-3) | effect on cells growth (BC-3 cells; BC-3 cells, six days, 4 mM) | inhibition at 2000 µM (BC-3 cells; Homo sapiens, 144 h, BC-3 cells, six days, 2 mM, read-out: cells growth inhibited) [%] | KSHV infected cells killed (BC-3 cells; six days after treatment)
CC1(C(=O)O)CCC2(C)CCC3(C)C(=CC(=O)C4C5(C)CCC(OC6OC(C(=O)O)C(O)C(O)C6OC6OC(C(=O)O)C(O)C(O)C6O)C(C)(C)C5CCC43C)C2C1.N.O.O.O.O.O (stereo not drawn) [Ammonium glycyrrhizinate pentahydrate] | soluble |  |  |  |  |  |  |  |  |  |  |  |  |  |  |  |  | 
CC1(C)[C@@H](O[C@H]2O[C@H](C(=O)O)[C@@H](O)[C@H](O)[C@H]2O[C@@H]2O[C@H](C(=O)O)[C@@H](O)[C@H](O)[C@H]2O)CC[C@]2(C)[C@H]3C(=O)C=C4[C@@H]5C[C@@](C)(C(=O)O)CC[C@]5(C)CC[C@@]4(C)[C@]3(C)CC[C@@H]12 [Glycyrrhizic acid] |  | inhibits the expression of latent viral antigens | 50 | 50 | 80 | no effect | 50 | 50 | 80 | freely soluble | 4 | does not show any effect | almost totally inhibited | not inhibited | does not have any effect | cell death | 50 | completely killed

Source: patent publication US20020091158A1, “Composition for and method of treatment using triterpenoids” (priority 1999, published 2002)
